According to paper PMC4757856 (Medchemcomm, 2015):

Key:
PfNMT = biological target: T1, PfNMT (Plasmodium falciparum, UniProt Q9U419); assay: NMT enzyme inhibition assay; format: biochemical; details: for LipE: LipE = pKi (PfNMT) - clog P
T1 sequence (Q9U419 1-410): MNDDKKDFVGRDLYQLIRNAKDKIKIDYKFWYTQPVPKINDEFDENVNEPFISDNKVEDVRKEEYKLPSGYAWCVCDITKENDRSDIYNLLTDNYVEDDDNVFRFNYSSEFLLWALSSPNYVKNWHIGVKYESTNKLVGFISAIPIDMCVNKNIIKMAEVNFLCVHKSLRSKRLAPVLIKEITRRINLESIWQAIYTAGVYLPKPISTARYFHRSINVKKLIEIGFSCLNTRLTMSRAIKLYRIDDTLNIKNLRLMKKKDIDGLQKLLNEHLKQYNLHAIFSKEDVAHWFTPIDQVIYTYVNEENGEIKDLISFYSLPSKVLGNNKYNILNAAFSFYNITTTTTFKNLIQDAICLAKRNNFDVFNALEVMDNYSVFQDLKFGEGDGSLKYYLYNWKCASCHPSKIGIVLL

HepG2 cell line = assay: HepG2 toxicity assay; format: cell-based, human; details: 48 hours, MTS

Compound | LipE (PfNMT) | LD50 (HepG2 cell line) [µM] | further results
c1ccc(Cc2noc(-c3cccnc3OC3CCNCC3)n2)cc1 [Compound 7] | – | – | fold improvement in enzyme affinity (PfNMT; PfNMT, 7 vs. 3): 10 fold
COc1cccc(Cc2noc(-c3ccccc3OC3CCNCC3)n2)c1 [Compound 18] | 3.32 | – | –
Cc1nn(C)c(C)c1Cc1noc(-c2cccnc2OC2CCNCC2)n1 [Compound 25] | – | >100 | –
Cc1nn(C)c(C)c1Cc1noc(-c2cccnc2OC2CCN(C(C)C)CC2)n1 [Compound 28] | – | >100 | –
c1cnc(OC2CCNCC2)c(-c2nc(Cc3cccc4ncccc34)no2)c1 [Compound 30] | 5.63 | – | –
